# Results: ChEMBL document CHEMBL4340517, “Synthesis and biological evaluation of 7-substituted cycloberberine derivatives as potent antibacterial agents against MRSA” (2019)
# Active and inactive are the calls of the source. The calls are words filed in the database; no cut-off is given here.
# Tests used:
# Enterococcus faecium = test: Antibacterial activity against VAN-resistant Enterococcus faecium ATCC 700221 after 18 hrs by agar dilution method; assay type: functional; settings: ATCC 700221, 18 h
# Enterococcus faecalis [1] = test: Antibacterial activity against VAN-resistant Enterococcus faecalis ATCC 51299 after 18 hrs by agar dilution method; assay type: functional; settings: ATCC 51299, 18 h
# Staphylococcus aureus [2] = test: Antibacterial activity against methicillin-resistant Staphylococcus aureus ATCC 33591 after 18 hrs by agar dilution method; assay type: functional; settings: ATCC 33591, 18 h
# [3] = tested on: Staphylococcus epidermidis; test: Antibacterial activity against methicillin-resistant Staphylococcus epidermidis 13-3 after 18 hrs by agar dilution method; assay type: functional; settings: 13-3, 18 h
# Enterococcus faecalis [4] = test: Antibacterial activity against VAN-sensitive Enterococcus faecalis ATCC 29212 after 18 hrs by agar dilution method; assay type: functional; settings: ATCC 29212, 18 h
# Staphylococcus aureus [5] = test: Antibacterial activity against VAN-intermediate Staphylococcus aureus ATCC 700698 after 18 hrs by agar dilution method; assay type: functional; settings: ATCC 700698, 18 h
# Staphylococcus aureus [6] = test: Antibacterial activity against methicillin-sensitive Staphylococcus aureus ATCC 29213 after 18 hrs by agar dilution method; assay type: functional; settings: ATCC 29213, 18 h
# [7] = target: Topoisomerase IV (Staphylococcus aureus) (UniProt P0C1U9+P0C1S7); test: Inhibition of methicillin-resistant Staphylococcus aureus topoisomerase-4 assessed as reduction in DNA decatenation at 2.5 to 5 ug/ml using super coiled pBR322 plasmid DNA as substrate measured after 30 mins by agarose gel electrophoresis method relative to control; assay type: protein-complex assay
# Staphylococcus aureus [8] = test: Antibacterial activity against methicillin-resistant Staphylococcus aureus 18-4 after 18 hrs by agar dilution method; assay type: functional; settings: 18-4, 18 h
# Staphylococcus aureus [9] = test: Bactericidal activity against methicillin-resistant Staphylococcus aureus 18-4 assessed as reduction in bacterial growth at 8 times MIC measured within 2 hrs by time kill assay relative to control; assay type: functional
# Staphylococcus aureus [10] = test: Bactericidal activity against methicillin-resistant Staphylococcus aureus 18-4 assessed as reduction in bacterial growth at 2 to 32 times MIC measured within 8 hrs by time kill assay relative to control; assay type: functional
# Staphylococcus aureus [11] = test: Bactericidal activity against methicillin-resistant Staphylococcus aureus 18-4 assessed as reduction in bacterial growth at 2 times MIC measured after 24 hrs by time kill assay relative to control; assay type: functional
SMILES,MIC (Enterococcus faecium),MIC (Enterococcus faecalis [1]),MIC (Staphylococcus aureus [2]),MIC [3],MIC (Enterococcus faecalis [4]),MIC (Staphylococcus aureus [5]),MIC (Staphylococcus aureus [6]),inhibition [7],MIC (Staphylococcus aureus [8]),growth inhibition (GI) (Staphylococcus aureus [9]),growth inhibition (GI) (Staphylococcus aureus [10]),growth inhibition (GI) (Staphylococcus aureus [11])
COc1ccc2c(c1OC)c(-c1ccc(C)cc1)[n+]1c3c2ccc2c4c(cc(c23)CC1)OCO4.[Br-],16 µg/mL,16 µg/mL,16 µg/mL,8 µg/mL,16 µg/mL,16 µg/mL,8 µg/mL,,,,,
CCc1cc2c3ccc(OC)c(OC)c3c(CC(C)C)[n+]3c2c2c(cc4c(c12)OCO4)CC3.[Br-],2 µg/mL,8 µg/mL,4 µg/mL,1 µg/mL,4 µg/mL,32 µg/mL,1 µg/mL,,,,,
CCCc1cc2c3ccc(OC)c(OC)c3c[n+]3c2c2c(cc4c(c12)OCO4)CC3.[Cl-],8 µg/mL,8 µg/mL,16 µg/mL,4 µg/mL,8 µg/mL,8 µg/mL,2 µg/mL,,,,,
COc1ccc2c(c1OC)c(CC(C)C)[n+]1c3c2ccc2c4c(cc(c23)CC1)OCO4.[Br-],16 µg/mL,16 µg/mL,16 µg/mL,4 µg/mL,16 µg/mL,16 µg/mL,4 µg/mL,,,,,
CCCc1cc2c3ccc(OC)c(OC)c3c(-c3ccc(Cl)cc3)[n+]3c2c2c(cc4c(c12)OCO4)CC3.[Br-],> 128 µg/mL,32 µg/mL,8 µg/mL,4 µg/mL,16 µg/mL,32 µg/mL,2 µg/mL,,,,,
COc1cc2c3c(ccc4c5ccc(OC)c(OC)c5c(-c5ccc(Cl)cc5)[n+](c43)CC2)c1OC.[Br-],> 128 µg/mL,8 µg/mL,8 µg/mL,2 µg/mL,16 µg/mL,16 µg/mL,2 µg/mL,,,,,
CN[C@H](CC(C)C)C(=O)N[C@H]1C(=O)N[C@@H](CC(N)=O)C(=O)N[C@H]2C(=O)N[C@H]3C(=O)N[C@H](C(=O)N[C@H](C(=O)O)c4cc(O)cc(O)c4-c4cc3ccc4O)[C@H](O)c3ccc(c(Cl)c3)Oc3cc2cc(c3O[C@@H]2O[C@H](CO)[C@@H](O)[C@H](O)[C@H]2O[C@H]2C[C@](C)(N)[C@H](O)[C@H](C)O2)Oc2ccc(cc2Cl)[C@H]1O [VANCOMYCIN],64 µg/mL,32 µg/mL,,,2 µg/mL,8 µg/mL,,,,,,
COc1cc2c3c(ccc4c5ccc(OC)c(OC)c5c(-c5ccccc5)[n+](c43)CC2)c1OC.[Br-],> 128 µg/mL,32 µg/mL,16 µg/mL,4 µg/mL,32 µg/mL,32 µg/mL,4 µg/mL,,,,,
C=CCc1c2c(OC)c(OC)ccc2c2ccc3c4c(cc5c3c2[n+]1CC5)OCO4.[Br-],16 µg/mL,16 µg/mL,16 µg/mL,8 µg/mL,16 µg/mL,16 µg/mL,16 µg/mL,,,,,
C=Cc1c2c(OC)c(OC)ccc2c2ccc3c4c(cc5c3c2[n+]1CC5)OCO4.[Br-],4 µg/mL,4 µg/mL,8 µg/mL,2 µg/mL,4 µg/mL,8 µg/mL,4 µg/mL,,,,,
CCc1cc2c3ccc(OC)c(OC)c3c[n+]3c2c2c(cc4c(c12)OCO4)CC3.[Cl-],32 µg/mL,8 µg/mL,4 µg/mL,1 µg/mL,8 µg/mL,16 µg/mL,2 µg/mL,,,,,
CCCCc1cc2c3ccc(OC)c(OC)c3c[n+]3c2c2c(cc4c(c12)OCO4)CC3.[Cl-],16 µg/mL,32 µg/mL,4 µg/mL,32 µg/mL,16 µg/mL,16 µg/mL,4 µg/mL,,,,,
C=Cc1c2c(OC)c(OC)ccc2c2cc(CC)c3c4c(cc5c3c2[n+]1CC5)OCO4.[Br-],1 µg/mL,4 µg/mL,2 µg/mL,1 µg/mL,2 µg/mL,32 µg/mL,1 µg/mL,,,,,
CCCc1cc2c3ccc(OC)c(OC)c3c(-c3ccccc3)[n+]3c2c2c(cc4c(c12)OCO4)CC3.[Br-],> 128 µg/mL,16 µg/mL,2 µg/mL,2 µg/mL,8 µg/mL,32 µg/mL,2 µg/mL,,,,,
CCc1cc2c3ccc(OC)c(OC)c3c(-c3ccccc3)[n+]3c2c2c(cc4c(c12)OCO4)CC3.[Br-],1 µg/mL,4 µg/mL,8 µg/mL,1 µg/mL,4 µg/mL,32 µg/mL,1 µg/mL,,,,,
CCc1c2c(OC)c(OC)ccc2c2ccc3c4c(cc5c3c2[n+]1CC5)OCO4.[Br-],8 µg/mL,16 µg/mL,16 µg/mL,4 µg/mL,16 µg/mL,64 µg/mL,4 µg/mL,,,,,
CCCCc1cc2c3ccc(OC)c(OC)c3c(-c3ccccc3)[n+]3c2c2c(cc4c(c12)OCO4)CC3.[Br-],1 µg/mL,4 µg/mL,2 µg/mL,1 µg/mL,2 µg/mL,32 µg/mL,1 µg/mL,,,,,
COc1ccc2c(c1OC)c(-c1ccc(Cl)cc1)[n+]1c3c2ccc2c4c(cc(c23)CC1)OCO4.[Br-],> 128 µg/mL,8 µg/mL,4 µg/mL,1 µg/mL,8 µg/mL,8 µg/mL,2 µg/mL,,,,,
COc1ccc2c(c1OC)c(C1CC1)[n+]1c3c2ccc2c4c(cc(c23)CC1)OCO4.[Br-],16 µg/mL,16 µg/mL,16 µg/mL,8 µg/mL,16 µg/mL,16 µg/mL,8 µg/mL,,,,,
COc1ccc2c(c1OC)c(-c1ccc3c(c1)OCO3)[n+]1c3c2ccc2c4c(cc(c23)CC1)OCO4.[Br-],8 µg/mL,8 µg/mL,16 µg/mL,2 µg/mL,8 µg/mL,32 µg/mL,16 µg/mL,,,,,
COc1cc2c3c(ccc4c5ccc(OC)c(OC)c5c(-c5ccc6c(c5)OCO6)[n+](c43)CC2)c1OC.[Br-],> 128 µg/mL,32 µg/mL,8 µg/mL,2 µg/mL,32 µg/mL,32 µg/mL,4 µg/mL,,,,,
COc1ccc2c(c1OC)c(-c1ccccc1)[n+]1c3c2ccc2c4c(cc(c23)CC1)OCO4.[Br-],4 µg/mL,4 µg/mL,4 µg/mL,1 µg/mL,4 µg/mL,8 µg/mL,1 µg/mL,Active,1 µg/mL,100%,>90%,99.99%
CCCCc1cc2c3ccc(OC)c(OC)c3c(-c3ccc(Cl)cc3)[n+]3c2c2c(cc4c(c12)OCO4)CC3.[Br-],1 µg/mL,2 µg/mL,1 µg/mL,1 µg/mL,1 µg/mL,32 µg/mL,1 µg/mL,,,,,
COc1ccc2c(c1OC)c(-c1ccc(F)cc1)[n+]1c3c2ccc2c4c(cc(c23)CC1)OCO4.[Br-],> 128 µg/mL,16 µg/mL,8 µg/mL,4 µg/mL,16 µg/mL,16 µg/mL,8 µg/mL,,,,,
CCc1cc2c3ccc(OC)c(OC)c3c(-c3ccc(Cl)cc3)[n+]3c2c2c(cc4c(c12)OCO4)CC3.[Br-],1 µg/mL,4 µg/mL,2 µg/mL,1 µg/mL,4 µg/mL,32 µg/mL,1 µg/mL,,,,,
CCOc1c(OC)ccc2c1c(-c1ccccc1)[n+]1c3c2ccc2c4c(cc(c23)CC1)OCO4.[Br-],2 µg/mL,4 µg/mL,8 µg/mL,1 µg/mL,4 µg/mL,32 µg/mL,1 µg/mL,,,,,
